Data: patent US9345742B2, “Aminostatin derivatives for the treatment of arthrosis” (MERCK PATENT GMBH, priority 2011, dated 2016)
pIC50: −log10 of the molar value.

Experiments:
[1] = Stability in bovine synovial fluid; format: in vitro ADME; conditions: 1 μM, 48 h at 37° C.
Protocol: In order to check the stability of individual compounds, a pool of four different bovine synovial fluids is mixed. To this end, about 1 ml per SF is used. The mixture is prepared directly in a 5 ml glass vessel. The SFs are mixed thoroughly, but carefully. No air bubbles or foam should form. To this end, a vortex unit is used at the lowest speed. The compounds to be tested are tested in an initial concentration (unless required otherwise) of 1 μM. After addition of the substance, the batch is again mixed thoroughly and carefully. For visual monitoring, all SF batches are photographed, and the pictures are filed in the eLabBio file for the corresponding experiment. […] The batches are incubated in the incubator for 48 h at 37° C. and 7.5% CO2.
The sampling is carried out after the pre-agreed times (unless required otherwise, see below). 200 μl of the SF are removed from the mixture per time and transferred directly into a 0.5 ml “low-binding” Eppendorf vessel. “Low-binding” Eppendorf vessels are used in order to minimise interaction of the substances with the plastic of the vessels. 200 μl of acetonitrile have already been introduced into the Eppendorf vessel, so that a 1+1 mixture of the SF forms thereafter. This simplifies the subsequent analysis, but precipitation of protein may occur immediately after addition of the SF. This should be noted on the protocol. The 0 h sample is taken immediately after addition of the substance. This corresponds to the 100% value in the stability calculation. Ideally, the concentration employed should be retrieved here. The samples can be frozen at −20° C. • 0 h • 6 h • 24 h • 48 h
The negative control used is SF without substance. The positive control used is SF with 1 μM of substance. This corresponds to the 0 h value and thus 100% stability.
The concentrations measured (ng/ml) are plotted against the time in a graph (GraphPad Prism®). The percentage stability of the substance is determined here. The 100% value used is the initial value in the SF at time 0 h. The data are stored in eLabBio under the respective experiment number and reported in the MSR database (as percent stability after the corresponding incubation times).

[2] = molecular target: cathepsin D isolated from the human liver (Homo sapiens (Human), UniProt P07339); test: In-vitro fluorescence assay for identification of cathepsin D inhibitors; format: biochemical; conditions: cathepsin D 1.4 nM, pH 5.5; read-out: CatD assay IC50-
Sequence of cathepsin D isolated from the human liver (P07339 65-161): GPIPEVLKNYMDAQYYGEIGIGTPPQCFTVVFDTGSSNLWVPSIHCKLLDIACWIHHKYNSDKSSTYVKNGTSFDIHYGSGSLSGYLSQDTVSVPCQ
Sequence of cathepsin D isolated from the human liver (P07339 169-412): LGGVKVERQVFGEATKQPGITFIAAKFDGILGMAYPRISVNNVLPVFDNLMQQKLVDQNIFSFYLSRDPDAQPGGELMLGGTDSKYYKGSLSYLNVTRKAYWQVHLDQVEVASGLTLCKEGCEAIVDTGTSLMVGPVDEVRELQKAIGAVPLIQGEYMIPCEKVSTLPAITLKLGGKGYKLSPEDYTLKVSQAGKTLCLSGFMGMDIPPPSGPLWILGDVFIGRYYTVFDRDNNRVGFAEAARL
Summary of the method: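 A FRET-quenched MCA/Dnp peptide (5 μM final) was cleaved by 1.4 nM liver-derived human cathepsin D at pH 5.5 in sodium acetate buffer containing CHAPS and 1.25% DMSO. Enzyme and compound dilutions were first incubated 10 min.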

Stability in synovial fluid [1]: stable | pIC50 [2]: 8.00
SMILES: CCC(CC)NC(=O)[C@@H](NC(=O)C[C@H](N)[C@H](Cc1ccccc1)NC(=O)[C@@H](NC(=O)[C@H](CC(C)C)NC(=O)CC(C)C)C(C)C)[C@@H](C)CC [Compound 39, N-[(1S,2S)-1-(1-Ethylpropylcarbamoyl)-2-methylbutyl]-(S)-3-(S)-amino-4-{(S)-3-methyl-2-[(S)-4-methyl-2-(3-methylbutyryl-amino)pentanoylamino]butyrylamino}-5-phenylpentanamide]
